Activity calls are given as the source filed them. No cut-off for these calls is given here.
What was measured:
Acetylcholinesterase = Acetylcholinesterase (Electrophorus electricus, UniProt O42275); assay: Inhibition of electric eel AChE using acetylthiocholine iodide as substrate preincubated for 5 mins followed by substrate addition measured after 5 mins by Ellmans method
Cholinesterase [1] = biological target: T1, Cholinesterase (Equus caballus, UniProt P81908)
Description: Inhibition of equine serum BChE using butyrylthiocholine chloride as substrate preincubated for 5 mins followed by substrate addition measured after 5 mins by Ellmans method

Histamine H3 receptor = Histamine H3 receptor (Homo sapiens, UniProt Q9Y5N1); assay: biochemical
Description: Displacement of [3H]Nalpha-methylhistamine from human full length recombinant histamine H3 receptor expressed in HEK293 cell membranes after 90 mins by liquid scintillation counting method

[2] = biological target: Cholinesterase (Equus caballus) (UniProt P81908); assay: Inhibition of equine serum BChE using butyrylthiocholine chloride as substrate at 10 uM preincubated for 5 mins followed by substrate addition measured after 5 mins by Ellmans method
[3] = biological target: Acetylcholinesterase (Electrophorus electricus) (UniProt O42275); assay: Inhibition of electric eel AChE using acetylthiocholine iodide as substrate at 10 uM preincubated for 5 mins followed by substrate addition measured after 5 mins by Ellmans method
[4] = biological target: Acetylcholinesterase (Electrophorus electricus) (UniProt O42275); assay: Mixed-type inhibition of electric eel AChE using acetylthiocholine iodide as substrate at 5 to 20 uM by Lineweaver-Burk double reciprocal plot analysis
[5] = biological target: Cholinesterase (Equus caballus) (UniProt P81908); assay: Non-competitive inhibition of equine serum BChE using butyrylthiocholine chloride as substrate at 2 to 5 uM by Lineweaver-Burk double reciprocal plot analysis
[6] = biological target: Acetylcholinesterase (Electrophorus electricus) (UniProt O42275); assay: Mixed-type inhibition of electric eel AChE using acetylthiocholine iodide as substrate at 2 to 10 uM by Lineweaver-Burk double reciprocal plot analysis
Cholinesterase [7] = biological target: T1, Cholinesterase; assay: Inhibition of equine serum BChE using butyrylthiocholine chloride as substrate preincubated for 4.5 mins followed by substrate addition measured after 2.5 mins by Ellmans method

Chain of Acetylcholinesterase (O42275 whole entry): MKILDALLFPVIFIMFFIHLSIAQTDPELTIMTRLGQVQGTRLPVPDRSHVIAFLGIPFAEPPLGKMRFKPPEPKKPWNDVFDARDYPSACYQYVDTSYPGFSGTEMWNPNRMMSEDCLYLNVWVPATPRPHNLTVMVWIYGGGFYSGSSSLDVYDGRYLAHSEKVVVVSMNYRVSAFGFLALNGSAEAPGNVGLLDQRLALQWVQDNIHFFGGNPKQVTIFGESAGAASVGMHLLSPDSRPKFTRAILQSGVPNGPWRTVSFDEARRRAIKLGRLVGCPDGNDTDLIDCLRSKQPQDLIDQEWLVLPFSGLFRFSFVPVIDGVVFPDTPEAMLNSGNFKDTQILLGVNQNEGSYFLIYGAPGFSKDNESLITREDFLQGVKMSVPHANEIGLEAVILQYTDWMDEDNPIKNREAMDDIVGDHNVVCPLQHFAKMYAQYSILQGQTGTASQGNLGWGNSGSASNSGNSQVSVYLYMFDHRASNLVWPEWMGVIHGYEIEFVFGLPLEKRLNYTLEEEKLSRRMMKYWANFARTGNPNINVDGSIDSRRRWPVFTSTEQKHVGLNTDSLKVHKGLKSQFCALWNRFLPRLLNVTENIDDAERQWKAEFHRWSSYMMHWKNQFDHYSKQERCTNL
Chain of Acetylcholinesterase (Electrophorus electricus) (O42275 24-633 limits assumed): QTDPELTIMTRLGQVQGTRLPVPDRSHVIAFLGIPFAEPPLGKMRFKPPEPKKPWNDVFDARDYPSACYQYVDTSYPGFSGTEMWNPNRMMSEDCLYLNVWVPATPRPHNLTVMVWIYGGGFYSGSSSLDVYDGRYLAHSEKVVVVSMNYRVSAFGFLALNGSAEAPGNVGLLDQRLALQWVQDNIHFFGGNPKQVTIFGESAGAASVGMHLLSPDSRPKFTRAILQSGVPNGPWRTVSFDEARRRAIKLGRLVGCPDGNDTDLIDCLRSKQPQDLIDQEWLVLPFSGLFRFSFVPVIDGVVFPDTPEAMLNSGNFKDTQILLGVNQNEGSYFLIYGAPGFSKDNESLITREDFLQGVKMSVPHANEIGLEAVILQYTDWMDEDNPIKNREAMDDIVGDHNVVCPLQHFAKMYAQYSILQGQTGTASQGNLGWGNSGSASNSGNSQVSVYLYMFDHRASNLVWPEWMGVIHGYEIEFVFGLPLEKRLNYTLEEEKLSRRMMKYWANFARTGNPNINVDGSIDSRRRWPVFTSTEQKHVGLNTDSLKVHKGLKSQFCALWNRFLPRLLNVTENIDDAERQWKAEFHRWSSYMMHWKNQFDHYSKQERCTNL
T1 sequence (P81908 whole entry): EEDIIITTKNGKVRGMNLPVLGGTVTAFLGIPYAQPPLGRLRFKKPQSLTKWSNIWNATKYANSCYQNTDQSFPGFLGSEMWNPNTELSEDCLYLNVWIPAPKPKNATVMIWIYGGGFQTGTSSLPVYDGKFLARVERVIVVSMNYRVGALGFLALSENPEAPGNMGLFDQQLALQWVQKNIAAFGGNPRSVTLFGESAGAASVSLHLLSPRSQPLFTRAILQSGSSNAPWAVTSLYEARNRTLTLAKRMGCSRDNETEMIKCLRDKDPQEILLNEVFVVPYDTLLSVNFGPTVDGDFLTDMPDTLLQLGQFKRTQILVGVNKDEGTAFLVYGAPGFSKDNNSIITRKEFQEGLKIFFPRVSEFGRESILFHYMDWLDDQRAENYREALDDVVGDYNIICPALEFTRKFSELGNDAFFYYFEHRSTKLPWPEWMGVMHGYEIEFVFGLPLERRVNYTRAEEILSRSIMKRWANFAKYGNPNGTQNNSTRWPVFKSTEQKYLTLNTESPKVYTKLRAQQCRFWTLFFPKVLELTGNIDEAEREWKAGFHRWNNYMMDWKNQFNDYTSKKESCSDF
Chain of Cholinesterase (Equus caballus) (P81908 whole entry): as above
Chain of Histamine H3 receptor (Q9Y5N1 whole entry): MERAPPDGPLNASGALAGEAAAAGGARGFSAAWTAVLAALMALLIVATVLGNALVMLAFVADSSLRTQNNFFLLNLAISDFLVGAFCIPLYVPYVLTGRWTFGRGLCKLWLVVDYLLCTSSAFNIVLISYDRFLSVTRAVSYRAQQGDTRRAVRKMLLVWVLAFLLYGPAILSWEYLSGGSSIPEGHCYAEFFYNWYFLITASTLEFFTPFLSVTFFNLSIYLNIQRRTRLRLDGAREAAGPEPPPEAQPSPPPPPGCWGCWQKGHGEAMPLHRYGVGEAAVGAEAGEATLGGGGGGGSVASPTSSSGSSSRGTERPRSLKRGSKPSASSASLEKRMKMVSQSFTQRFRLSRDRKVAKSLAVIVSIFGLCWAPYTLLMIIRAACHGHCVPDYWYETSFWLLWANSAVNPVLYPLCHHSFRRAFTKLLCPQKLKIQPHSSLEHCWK

Row | SMILES | IC50 (Acetylcholinesterase) | IC50 (Cholinesterase [1]) | inhibition [2] | further results
1 | CC1CCCN(CCCCCCCOc2cccc(Cl)c2)C1 (stereo not given) | 3.8 µM | 5.15 µM |  | Ki (Histamine H3 receptor): 0.446 µM
2 | Clc1ccc(OCCCCCCN2CCCCCC2)cc1 | 3.88 µM | 3.74 µM |  | 
3 | CC1CCCN(CCCCCCOc2ccc(Cl)cc2)C1 (stereo not given) | 4.8 µM | > 10 µM | < 50% | 
4 | Clc1cccc(OCCCCCCCN2CCCCCC2)c1 | 2.42 µM | 0.9 µM |  | 
5 | Clc1ccc(OCCCCCN2CCCCCC2)cc1 | > 10 µM | 3.45 µM |  | inhibition [3]: < 50%
6 | Clc1ccc(OCCCCCCN2CCCCC2)cc1 | > 10 µM | > 10 µM | < 50% | inhibition [3]: < 50%
7 | CC1CCCN(CCCCCCCOc2ccc(Cl)cc2)C1 (stereo not given) | 4.51 µM | > 10 µM | < 50% | inhibition [4]: Active
8 | Clc1ccc(OCCCCCCCN2CCCCCC2)cc1 | 1.93 µM | 1.64 µM |  | inhibition [5]: Active; inhibition [6]: Active
9 | Clc1ccc(OCCCCCN2CCCCC2)cc1 | > 10 µM | > 10 µM | < 50% | inhibition [3]: < 50%
10 | CC1CCCN(CCCCCCOc2cccc(Cl)c2)C1 (stereo not given) | 6.22 µM | > 10 µM | < 50% | 
11 | CC1CCN(CCCCCCCOc2ccc(Cl)cc2)CC1 | 2.74 µM | 2.92 µM |  | 
12 | CC1CCN(CCCCCCCOc2cccc(Cl)c2)CC1 | 4.9 µM | 1.66 µM |  | 
13 | CC1CCCN(CCCCCOc2ccc(Cl)cc2)C1 (stereo not given) | 23.6 µM | > 10 µM | < 50% | 
14 | CC1CCN(CCCCCCOc2ccc(Cl)cc2)CC1 | 8.11 µM | 5.43 µM |  | 
15 | CC1CCN(CCCCCOc2ccc(Cl)cc2)CC1 | > 10 µM | > 10 µM | < 50% | inhibition [3]: < 50%
16 | Clc1cccc(OCCCCCCN2CCCCCC2)c1 | 5.4 µM | 2.43 µM |  | 
17 | CC1CCN(CCCCCCOc2cccc(Cl)c2)CC1 | 7.31 µM | 3.53 µM |  | 
18 | Clc1cccc(OCCCCCCN2CCCCC2)c1 | 18.6 µM | > 10 µM | < 50% | 
19 | c1cc2c(cc1OCCCN1CCCCC1)CN1CCCC1=N2 |  |  |  | IC50 (Cholinesterase [7]): 8.2 µM
20 | Clc1ccc(OCCCCCCCN2CCCCC2)cc1 | 3.94 µM | > 10 µM | < 50% | 
21 | Clc1cccc(OCCCCCCCN2CCCCC2)c1 | 5.33 µM | 4.75 µM |  | 
22 | Clc1ccc(OCCCOCCCN2CCCCCC2)cc1 | 7.91 µM | 4.97 µM |  | 

Source: ChEMBL document CHEMBL4425171, “Cholinesterase inhibitory activity of chlorophenoxy derivatives-Histamine H3 receptor ligands” (Bioorg Med Chem Lett, 2016)
